“And” between values parts separate entries of the source, which are not always exact repeats. Equal values may be shown once.
Key:
[1] = system: lptA-lacZ expression; test: β-galactosidase assay, lptA-lacZ fusion (negative control gene); conditions: WT-lptA-lacZ
[2] = system: wild type FA19; test: Antimicrobial susceptibility spot assay with hormone plus azithromycin or polymyxin B, wild type FA19; type: cell-based, Neisseria gonorrhoeae; conditions: for resistance to azithromycin in presence of sub-lethal hormone: wild-type FA19, GC agar, 24 h, visual
Method: (§1) Fig. 5 Effect of steroidal hormones on gonococcal antimicrobial susceptibility.
(§2) To determine the minimal inhibitory concentrations (MICs) by the steroidal hormones and their effect on antimicrobial susceptibility, 5 x 10^5 CFU and 1:5 serial dilutions of gonococcal strains were spotted on GC agar plates containing different concentrations of antibiotics and/or hormones as indicated. Antimicrobial susceptibility was assessed after 24 h incubation.

[3] = system: mutant strain JF1 (ΔmtrR); test: Antimicrobial susceptibility spot assay with hormone plus antibiotic, JF1 (ΔmtrR); type: cell-based, Neisseria gonorrhoeae; conditions: derivative lacking MtrR (JF1), azithromycin
Method: as §1, §2

[4] = biological target: T1, MtrR R176E (Neisseria gonorrhoeae, UniProt P39897, R176E); test: biochemical; type: binding
T1 construct: Hexa-histidine tag with TEV protease cleavage site (N, cleaved yes); made in house; host or cells: E. coli Rosetta Gami B(DE3) pLysS
T1 sequence (P39897 whole entry R176E): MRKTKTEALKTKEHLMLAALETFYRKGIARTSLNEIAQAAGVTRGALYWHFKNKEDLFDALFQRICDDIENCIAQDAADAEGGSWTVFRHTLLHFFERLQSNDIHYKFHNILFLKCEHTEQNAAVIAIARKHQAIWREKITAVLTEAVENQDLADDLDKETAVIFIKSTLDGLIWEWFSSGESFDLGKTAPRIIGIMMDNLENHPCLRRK

[5] = system: FA19 mtrD::kan (KH14); test: MIC of steroidal hormones on GC agar, FA19 mtrD::kan (KH14); type: cell-based, Neisseria gonorrhoeae; conditions: for MIC: Neisseria gonorrhoeae; for effect of mtrD deletion on MIC: vs FA19
Method: as §2
Table S1. Steroidal hormones are substrates of the MtrCDE efflux pump
Progesterone Testosterone
*Minimal inhibition concentration is defined by the lowest concentration at which visible growth is […]

[6] = system: ngo1249-lacZ expression; test: β-galactosidase assay, ngo1249-lacZ fusion (negative control gene); conditions: WT-NGO1249-lacZ
[7] = system: FA19 mtrD::kan (KH14); set-up: method as in PMID 31744915; conditions: cited from earlier work
[8] = biological target: T2, MtrR binding to rpoH operator (27mer) (Neisseria gonorrhoeae, UniProt P39897); test: Fluorescence polarization based DNA binding assay, rpoH operator; conditions: rpoH 27mer + 125 µM steroid
T2 construct: Hexa-histidine tag with TEV protease cleavage site (N, cleaved yes); made in house; host or cells: E. coli Rosetta Gami B(DE3) pLysS
T2 sequence (P39897 whole entry): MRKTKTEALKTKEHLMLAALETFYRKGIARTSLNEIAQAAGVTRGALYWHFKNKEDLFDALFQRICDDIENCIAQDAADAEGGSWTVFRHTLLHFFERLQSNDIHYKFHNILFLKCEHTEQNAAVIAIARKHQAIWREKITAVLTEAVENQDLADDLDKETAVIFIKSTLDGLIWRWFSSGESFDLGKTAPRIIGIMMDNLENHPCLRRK
Method: Fluorescence polarization based-DNA binding data were collected using a Panvera Beacon 2000 fluorescence polarization system (Invitrogen) and analyzed with Prism (Graphpad Software 9, 10). Purified MtrR was buffer exchanged into “DNA” binding buffer (150 mM NaCl, 20 mM Tris-HCl pH 7.5, 2.5% glycerol, 1 mM TCEP). […] The reported oligoduplexes containing the rpoH and mtrCDE binding site differ in lengths, 27mer and 21mer, respectively[17],[21]. […] BSA and dI-dC are included as carriers and to control for nonspecific DNA binding. Samples were excited at 490 nm and polarized emissions measured at 530 nm. Controls were run with no protein (DNA ± methanol, hormonal steroids) to ensure that millipolarization values were not affected by experimental conditions alone. The binding affinity of protein for DNA was determined using the following equation: P = Pf + (Pb – Pf) [M] / (Kd + [M]) where P is the measured polarization, Pf is the polarization of free DNA, Pb is the polarization of the completely bound DNA, Kd is the equilibrium dissociation constant, and M is the concentration of protein. Pb and Kd were determined by nonlinear least-squares analysis. At least three independent experimental measurements were averaged for each reported binding constant.

[9] = biological target: T3, MtrR W136A (Neisseria gonorrhoeae, UniProt P39897, W136A); test: biochemical; type: binding
T3 construct: Hexa-histidine tag with TEV protease cleavage site (N, cleaved yes); made in house; host or cells: E. coli Rosetta Gami B(DE3) pLysS
T3 sequence (P39897 whole entry W136A): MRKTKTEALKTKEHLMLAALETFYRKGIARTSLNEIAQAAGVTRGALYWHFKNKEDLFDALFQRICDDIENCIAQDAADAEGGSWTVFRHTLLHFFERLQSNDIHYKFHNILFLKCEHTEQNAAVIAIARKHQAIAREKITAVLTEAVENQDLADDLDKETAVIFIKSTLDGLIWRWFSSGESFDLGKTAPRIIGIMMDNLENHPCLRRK

Compound | Mean Miller units ([1]; 0.1 µM hormone) [Miller units] | Mean Miller units ([1]; 1 µM hormone) [Miller units] | Mean Miller units ([1]; 10 µM hormone) [Miller units] | Mean Miller units ([1]; 50 µM hormone) [Miller units] | Kd [4] [µM] | MIC [5] | effect of mtrD deletion on MIC [5] | fluorescence polarization, MtrR titration ([8]; MtrR WT dimer 0.00 nM) [mP] | fluorescence polarization, MtrR titration ([8]; MtrR WT dimer 25.90 nM) | fluorescence polarization, MtrR titration ([8]; MtrR WT dimer 35.50 nM) | fluorescence polarization, MtrR titration ([8]; MtrR WT dimer 54.52 nM) | fluorescence polarization, MtrR titration ([8]; MtrR WT dimer 73.35 nM) | fluorescence polarization, MtrR titration ([8]; MtrR WT dimer 110.67 nM) | fluorescence polarization, MtrR titration ([8]; MtrR WT dimer 147.65 nM) | fluorescence polarization, MtrR titration ([8]; MtrR WT dimer 220.59 nM) | fluorescence polarization, MtrR titration ([8]; MtrR WT dimer 292.55 nM) | fluorescence polarization, MtrR titration ([8]; MtrR WT dimer 363.86 nM) | fluorescence polarization, MtrR titration ([8]; MtrR WT dimer 434.54 nM) | fluorescence polarization, MtrR titration ([8]; MtrR WT dimer 504.61 nM) | fluorescence polarization, MtrR titration ([8]; MtrR WT dimer 574.07 nM) | further results
CC(=O)[C@H]1CC[C@H]2[C@@H]3CCC4=CC(=O)CC[C@]4(C)[C@H]3CC[C@]12C [Progesterone, progesterone] | 10 | 13 | 13 | 10 | 8.43 ± 8.3 | 20 µg/mL and 64 µM | lowered | 0.00 | 11.91 mP and 9.75 mP and 10.51 mP | 14.38 mP and 9.72 mP and 14.14 mP | 18.81 mP and 15.99 mP and 17.44 mP | 23.45 mP and 18.32 mP and 20.67 mP | 27.11 mP and 21.95 mP and 25.01 mP | 29.38 mP and 25.62 mP and 28.21 mP | 32.78 mP and 29.35 mP and 32.41 mP | 36.31 mP and 32.79 mP and 35.11 mP | 36.91 mP and 35.45 mP and 37.94 mP | 40.61 mP and 38.05 mP and 40.54 mP | 41.81 mP and 39.19 mP and 42.17 mP | 44.75 mP and 41.42 mP and 44.21 mP | Mean Miller units ([1]; 100 µM hormone): 12 Miller units; resistance to azithromycin in presence of sub-lethal hormone [2]: elevated levels of resistance; change in antibiotic resistance in presence of sub-lethal hormone [3]: did not show change; Mean Miller units ([6]; 0.1 µM hormone): 5 Miller units; Mean Miller units ([6]; 1 µM hormone): 8 Miller units; Mean Miller units ([6]; 10 µM hormone): 8 Miller units; Mean Miller units ([6]; 50 µM hormone): 6.43 Miller units; Mean Miller units ([6]; 100 µM hormone): 6.923 Miller units; change of MIC by mutations of the mtrD gene [7]: significant decrease
C[C@]12CC[C@H]3[C@@H](CCC4=CC(=O)CC[C@@]43C)[C@@H]1CC[C@@H]2O [Testosterone, testosterone] | – | – | – | – | 3.73 ± 0.4 | 40 µg/mL and 139 µM | lowered | 0.00 | 9.43 mP and 8.25 mP | 11.51 mP and 12.65 mP and 12.17 mP | 15.46 mP and 15.52 mP | 17.83 mP and 19.00 mP and 18.19 mP | 21.89 mP and 23.20 mP and 21.59 mP | 25.36 mP and 23.99 mP | 26.93 mP and 29.97 mP and 27.52 mP | 30.66 mP and 32.37 mP and 31.12 mP | 32.43 mP and 34.37 mP and 33.42 mP | 34.93 mP and 38.17 mP and 35.29 mP | 36.76 mP and 39.37 mP and 37.09 mP | 38.43 mP and 40.67 mP and 39.72 mP | Kd [9]: 5.79 ± 1.4 µM; fluorescence polarization, MtrR titration ([8]; MtrR WT dimer 6.35 nM): 2.56 mP and 4.77 mP and 2.79 mP; fluorescence polarization, MtrR titration ([8]; MtrR WT dimer 8.85 nM): 4.03 mP and 4.45 mP; fluorescence polarization, MtrR titration ([8]; MtrR WT dimer 11.32 nM): 4.86 mP and 6.47 mP and 4.69 mP; fluorescence polarization, MtrR titration ([8]; MtrR WT dimer 16.21 nM): 6.33 mP and 8.37 mP and 6.42 mP
C[C@]12CC[C@@H]3c4ccc(O)cc4CC[C@H]3[C@@H]1CC[C@@H]2O [β-Estradiol, β-estradiol] | 4.54 | 7 | 4.45 | 6.62 | 0.72 ± 0.15 | 320 µg/mL and 1180 µM | lowered | 0.00 | 3.74 mP and 5.72 mP and 6.73 mP | 6.01 mP and 7.12 mP and 8.13 mP | 8.01 mP and 9.55 mP and 10.56 mP | 11.39 mP and 12.36 mP | 12.31 mP and 14.15 mP and 15.93 mP | 15.17 mP and 15.72 mP and 17.43 mP | 18.17 mP and 19.19 mP and 21.36 mP | 20.01 mP and 21.72 mP and 23.36 mP | 21.41 mP and 22.99 mP and 26.06 mP | 23.51 mP and 24.99 mP and 26.53 mP | 25.37 mP and 27.45 mP and 28.59 mP | 29.37 mP and 27.75 mP and 29.19 mP | Mean Miller units ([1]; 100 µM hormone): 6 Miller units; resistance to polymyxin B in presence of hormone ([2]; strain FA19): increased resistance; resistance to azithromycin in presence of sub-lethal hormone [2]: elevated levels of resistance; change in antibiotic resistance in presence of sub-lethal hormone [3]: did not show change; Mean Miller units ([6]; 0.1 µM hormone): 5 Miller units; Mean Miller units ([6]; 1 µM hormone): 5 Miller units; Mean Miller units ([6]; 10 µM hormone): 5.32 Miller units; Mean Miller units ([6]; 50 µM hormone): 4.874 Miller units; Mean Miller units ([6]; 100 µM hormone): 4.606 Miller units; Kd [9]: 1.06 ± 0.04 µM
